This passage reports IC50 results from patent publication US11661426B2, “Imidazole-containing inhibitors of ALK2 kinase” (BioCryst Pharmaceuticals, Inc., priority 2017, dated 2023).

pIC50: −log10 of the molar value. Where only a bound is given, the exact number is not on record here.

Chain of ALK2 (Q04771 21-509): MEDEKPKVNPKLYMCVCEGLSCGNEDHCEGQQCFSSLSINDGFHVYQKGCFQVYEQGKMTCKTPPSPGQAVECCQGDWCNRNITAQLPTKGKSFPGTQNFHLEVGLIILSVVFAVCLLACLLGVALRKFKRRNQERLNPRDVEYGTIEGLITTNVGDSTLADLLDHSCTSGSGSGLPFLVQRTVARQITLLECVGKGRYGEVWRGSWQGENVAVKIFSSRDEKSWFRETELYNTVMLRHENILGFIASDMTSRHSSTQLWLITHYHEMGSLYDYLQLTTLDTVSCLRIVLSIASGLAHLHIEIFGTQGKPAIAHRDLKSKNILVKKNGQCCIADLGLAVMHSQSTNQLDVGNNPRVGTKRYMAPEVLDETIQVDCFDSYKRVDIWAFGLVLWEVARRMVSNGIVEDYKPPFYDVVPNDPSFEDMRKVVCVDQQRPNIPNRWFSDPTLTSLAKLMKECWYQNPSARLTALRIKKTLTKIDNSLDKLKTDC

The test concerns the target ALK2 (Homo sapiens (Human), UniProt Q04771). As to the kind of experiment: ALK2 inhibition, LanthaScreen Eu Kinase Binding Assay (ThermoFisher Scientific / Life Technologies). The settings on record: read-out: Measured Ki (IC50) Value for Compounds: IC50. The protocol: Biochemical assays to measure the inhibitory effects of the compounds were performed by ThermoFisher Scientific (Life Technologies). ALK2 inhibition was tested using LanthaScreen™ Eu Kinase Binding Assay screening protocol.
In general terms: In TR-FRET formats the signal depends on donor and acceptor labels being close together.
For orientation: pIC50 means the negative decadic logarithm of the IC50, by convention in mol/L. For the compound `COc1cc(-n2cnc(Nc3nc(N4CCC[C@H]4CO)c4ncccc4n3)c2)cc(OC)c1OC` [Compound 175b, (S)-(1-(2-((1-(3,4,5-trimethoxyphenyl)-1H-imidazol-4-yl)amino)pyrido[3,2-d]pyrimidin-4-yl)pyrrolidin-2-yl)methanol], the pIC50 is greater than 7.00.

As for `COc1cc(-n2cnc(Nc3nc(N4CCC[C@@H]4C(N)=O)c4cccn4n3)c2)cc(OC)c1OC` [Compound 176b, (R)-1-(2-((1-(3,4,5-trimethoxyphenyl)-1H-imidazol-4-yl)amino)pyrrolo[2,1-f][1,2,4]triazin-4-yl)pyrrolidine-2-carboxamide], the pIC50 is 6.00 to 7.00.

Turning to `COc1cc(-n2cnc(Nc3nc4c(c(N5CCC[C@H]5CO)n3)CN(Cc3ccccc3)CC4)c2)cc(OC)c1OC` [Compound 177b, (S)-(1-(6-benzyl-2-((1-(3,4,5-trimethoxyphenyl)-1H-imidazol-4-yl)amino)-5,6,7,8-tetrahydropyrido[4,3-d]pyrimidin-4-yl)pyrrolidin-2-yl)methanol], the negative logarithm of the IC50 (pIC50) was greater than 7.00.

Consider `COc1cc(-n2cnc(Nc3ccc4ccccc4c3)c2)cc(OC)c1OC` [Compound 178b, N-(naphthalen-2-yl)-1-(3,4,5-trimethoxyphenyl)-1H-imidazol-4-amine], for which the negative logarithm of the IC50 (pIC50) is 6.00 to 7.00.

As for `COc1cc(-n2cnc(Nc3ccc4ccccc4n3)c2)cc(OC)c1OC` [Compound 179b, N-(1-(3,4,5-trimethoxyphenyl)-1H-imidazol-4-yl)quinolin-2-amine], the pIC50 is greater than 7.00.

`COc1cc(-n2cnc(Nc3nc(N4CCC[C@H]4CO)c4c(ccn4S(=O)(=O)c4ccc(C)cc4)n3)c2)cc(OC)c1OC` [Compound 180b, (S)-(1-(5-tosyl-2-((1-(3,4,5-trimethoxyphenyl)-1H-imidazol-4-yl)amino)-5H-pyrrolo[3,2-d]pyrimidin-4-yl)pyrrolidin-2-yl)methanol]: the pIC50 is greater than 7.00.

As to `COc1cc(-n2cnc(Nc3nc4c(c(N5CCC[C@H]5CO)n3)CN(C(=O)OC(C)(C)C)CC4)c2)cc(OC)c1OC` [Compound 181c, (S)-tert-butyl 4-(2-(hydroxymethyl)pyrrolidin-1-yl)-2-((1-(3,4,5-trimethoxyphenyl)-1H-imidazol-4-yl)amino)-7,8-dihydropyrido[4,3-d]pyrimidine-6(5H)-carboxylate], the pIC50 is greater than 7.00.

Regarding `COc1cc(-n2cnc(Nc3nc4c(c(N5CCC[C@H]5CO)n3)CNCC4)c2)cc(OC)c1OC` [Compound 181d, (S)-(1-(2-((1-(3,4,5-trimethoxyphenyl)-1H-imidazol-4-yl)amino)-5,6,7,8-tetrahydropyrido[4,3-d]pyrimidin-4-yl)pyrrolidin-2-yl)methanol], the pIC50 was greater than 7.00.

Consider `COc1cc(-n2cnc(Nc3nc4c(c(N5CCC[C@H]5CO)n3)CCN(C(=O)OC(C)(C)C)C4)c2)cc(OC)c1OC` [Compound 182c, (S)-tert-butyl 4-(2-(hydroxymethyl)pyrrolidin-1-yl)-2-((1-(3,4,5-trimethoxyphenyl)-1H-imidazol-4-yl)amino)-5,6-dihydropyrido[3,4-d]pyrimidine-7(8H)-carboxylate], for which the negative-log IC50 (pIC50) was greater than 7.00.

For the compound `COc1cc(-n2cnc(Nc3nc4c(c(N5CCC[C@H]5CO)n3)CCNC4)c2)cc(OC)c1OC` [Compound 182d, (S)-(1-(2-((1-(3,4,5-trimethoxyphenyl)-1H-imidazol-4-yl)amino)-5,6,7,8-tetrahydropyrido[3,4-d]pyrimidin-4-yl)pyrrolidin-2-yl)methanol], the negative logarithm of the IC50 (pIC50) was greater than 7.00.

On to `COc1cc(-n2cnc(Nc3nc(N4CCC[C@H]4CO)nc4c3CCN(C(=O)OC(C)(C)C)C4)c2)cc(OC)c1OC` [Compound 183b, (S)-tert-butyl 2-(2-(hydroxymethyl)pyrrolidin-1-yl)-4-((1-(3,4,5-trimethoxyphenyl)-1H-imidazol-4-yl)amino)-5,6-dihydropyrido[3,4-d]pyrimidine-7(8H)-carboxylate], for which the pIC50 was greater than 7.00.

Regarding `COc1cc(-n2cnc(Nc3nc(N4CCC[C@H]4CO)nc4c3CCNC4)c2)cc(OC)c1OC` [Compound 183c, (S)-(1-(4-((1-(3,4,5-trimethoxyphenyl)-1H-imidazol-4-yl)amino)-5,6,7,8-tetrahydropyrido[3,4-d]pyrimidin-2-yl)pyrrolidin-2-yl)methanol], the pIC50 is greater than 7.00.

For `COc1cc(-n2cnc(Nc3nc(N4CCCC4)nc4c3CCN(C(=O)OC(C)(C)C)C4)c2)cc(OC)c1OC` [Compound 184a, tert-butyl 2-(pyrrolidin-1-yl)-4-((1-(3,4,5-trimethoxyphenyl)-1H-imidazol-4-yl)amino)-5,6-dihydropyrido[3,4-d]pyrimidine-7(8H)-carboxylate], the pIC50 is greater than 7.00.

Regarding `COc1cc(-n2cnc(Nc3nc(N4CCCC4)nc4c3CCNC4)c2)cc(OC)c1OC` [Compound 184b, 2-(pyrrolidin-1-yl)-N-(1-(3,4,5-trimethoxyphenyl)-1H-imidazol-4-yl)-5,6,7,8-tetrahydropyrido[3,4-d]pyrimidin-4-amine], the pIC50 was greater than 7.00.

`COc1cc(-n2cnc(Nc3nc(N4CCC[C@H]4C(N)=O)nc4c3CCN(C(=O)OC(C)(C)C)C4)c2)cc(OC)c1OC` [Compound 185a, (S)-tert-butyl 2-(2-carbamoylpyrrolidin-1-yl)-4-((1-(3,4,5-trimethoxyphenyl)-1H-imidazol-4-yl)amino)-5,6-dihydropyrido[3,4-d]pyrimidine-7(8H)-carboxylate]: the pIC50 is greater than 7.00.

With `COc1cc(-n2cnc(Nc3nc(N4CCC[C@H]4C(N)=O)nc4c3CCNC4)c2)cc(OC)c1OC` [Compound 185b, (S)-1-(4-((1-(3,4,5-trimethoxyphenyl)-1H-imidazol-4-yl)amino)-5,6,7,8-tetrahydropyrido[3,4-d]pyrimidin-2-yl)pyrrolidine-2-carboxamide], the pIC50 was greater than 7.00.

With `COc1cc(-n2cnc(Nc3nc(N4CCCC4)nc4ncccc34)c2)cc(OC)c1OC` [Compound 186a, 2-(pyrrolidin-1-yl)-N-(1-(3,4,5-trimethoxyphenyl)-1H-imidazol-4-yl)pyrido[2,3-d]pyrimidin-4-amine], the pIC50 was greater than 7.00.

In the case of `COc1cc(-n2cnc(Nc3ncnn4cccc34)c2)cc(OC)c1OC` [Compound 187b, N-(1-(3,4,5-trimethoxyphenyl)-1H-imidazol-4-yl)pyrrolo[2,1-f][1,2,4]triazin-4-amine], the pIC50 is greater than 7.00.

Turning to `COc1cc(-n2cnc(Nc3nc(N4CCCC4)nc4cccnc34)c2)cc(OC)c1OC` [Compound 188a, 2-(pyrrolidin-1-yl)-N-(1-(3,4,5-trimethoxyphenyl)-1H-imidazol-4-yl)pyrido[3,2-d]pyrimidin-4-amine], the pIC50 was greater than 7.00.

In the case of `COc1cc(-n2cnc(Nc3nc(N4CCC[C@H]4C(N)=O)nc4ccsc34)c2)cc(OC)c1OC` [Compound 189a, (S)-1-(4-((1-(3,4,5-trimethoxyphenyl)-1H-imidazol-4-yl)amino)thieno[3,2-d]pyrimidin-2-yl)pyrrolidine-2-carboxamide], the pIC50 was greater than 7.00.

`COc1cc(-n2cnc(Nc3nc(N4CCC[C@H]4C(N)=O)nc4ccoc34)c2)cc(OC)c1OC` [Compound 190a, (S)-1-(4-((1-(3,4,5-trimethoxyphenyl)-1H-imidazol-4-yl)amino)furo[3,2-d]pyrimidin-2-yl)pyrrolidine-2-carboxamide]: the pIC50 is greater than 7.00.

Turning to `COc1cc(-n2cnc(Nc3nc(N4CCC[C@H]4C(N)=O)c4c(ccn4S(=O)(=O)c4ccc(C)cc4)n3)c2)cc(OC)c1OC` [Compound 191b, (S)-1-(5-tosyl-2-((1-(3,4,5-trimethoxyphenyl)-1H-imidazol-4-yl)amino)-5H-pyrrolo[3,2-d]pyrimidin-4-yl)pyrrolidine-2-carboxamide], the pIC50 was greater than 7.00.

`COc1cc(-n2cnc(Nc3nc(N4CCC[C@H]4C(N)=O)c4[nH]ccc4n3)c2)cc(OC)c1OC` [Compound 191c, (S)-1-(2-((1-(3,4,5-trimethoxyphenyl)-1H-imidazol-4-yl)amino)-5H-pyrrolo[3,2-d]pyrimidin-4-yl)pyrrolidine-2-carboxamide]: the pIC50 is greater than 7.00.

Turning to `COc1cc(-n2cnc(Nc3nc(N4CCCC4)c4cccnc4n3)c2)cc(OC)c1OC` [Compound 192b, 4-(pyrrolidin-1-yl)-N-(1-(3,4,5-trimethoxyphenyl)-1H-imidazol-4-yl)pyrido[2,3-d]pyrimidin-2-amine], the pIC50 was greater than 7.00.

As for `COc1cc(-n2cnc(Nc3nc4c(c(N5CCC[C@H]5C(N)=O)n3)CNCC4)c2)cc(OC)c1OC` [Compound 193c, (S)-1-(2-((1-(3,4,5-trimethoxyphenyl)-1H-imidazol-4-yl)amino)-5,6,7,8-tetrahydropyrido[4,3-d]pyrimidin-4-yl)pyrrolidine-2-carboxamide], the pIC50 was greater than 7.00.

For the compound `COc1cc(-n2cnc(Nc3nc4c(c(N5CCC[C@H]5C(N)=O)n3)CCNC4)c2)cc(OC)c1OC` [Compound 194c, (S)-1-(2-((1-(3,4,5-trimethoxyphenyl)-1H-imidazol-4-yl)amino)-5,6,7,8-tetrahydropyrido[3,4-d]pyrimidin-4-yl)pyrrolidine-2-carboxamide], the pIC50 was greater than 7.00.

Consider `COc1cc(-n2cnc(Nc3cc4ccccc4cn3)c2)cc(OC)c1OC` [Compound 195b, N-(1-(3,4,5-trimethoxyphenyl)-1H-imidazol-4-yl)isoquinolin-3-amine], for which the pIC50 is greater than 7.00.

Regarding `COc1cc(-n2cnc(Nc3nc(N4CCC[C@H]4C(N)=O)c4ncsc4n3)c2)cc(OC)c1OC` [Compound 196b, (S)-1-(5-((1-(3,4,5-trimethoxyphenyl)-1H-imidazol-4-yl)amino)thiazolo[5,4-d]pyrimidin-7-yl)pyrrolidine-2-carboxamide], the pIC50 was greater than 7.00.

On to `COc1cc(-n2cnc(Nc3nc(N4CCCC4)nc4scnc34)c2)cc(OC)c1OC` [Compound 197a, 5-(pyrrolidin-1-yl)-N-(1-(3,4,5-trimethoxyphenyl)-1H-imidazol-4-yl)thiazolo[5,4-d]pyrimidin-7-amine], for which the negative-log IC50 (pIC50) was greater than 7.00.

Take `COc1cc(-n2cnc(Nc3ncc4ccccc4n3)c2)cc(OC)c1OC` [Compound 198b, N-(1-(3,4,5-trimethoxyphenyl)-1H-imidazol-4-yl)quinazolin-2-amine]: the pIC50 was 6.00 to 7.00.
